Laboratory results reported in patent publication US10173971B2, “Picolinamides with fungicidal activity” (DOW AGROSCIENCES LLC, priority 2014, dated 2019).
Read-outs that look alike come from different tables or passages of the source.

Tests used:
Zymoseptoria tritici = test: Fungicidal activity: leaf blotch of wheat (SEPTTR), wheat seedlings, booth sprayer to run-off or track spray; type: in vivo; details: for pest or weed control at 100 ppm: High-Volume Cereal Activity at 100 ppm; for pest or weed control at 121.5 g/ha: Low-Volume Cereal Activity at 121.5 g/H
Method: All fungicides were evaluated using the aforementioned method for their activity vs. all target diseases. Wheat leaf blotch and brown rust activity were also evaluated using track spray applications, in which case the fungicides were formulated as EC formulations, containing 0.1% Trycol 5941 in the spray solutions. Wheat plants (variety Yuma) were grown from seed in a greenhouse in 50% mineral soil/50% soil-less Metro mix until the first leaf was fully emerged, with 7-10 seedlings per pot. These plants were inoculated with an aqueous spore suspension of Zymoseptoria tritici either prior to or after fungicide treatments. After inoculation the plants were kept in 100% relative humidity (one day in a dark dew chamber followed by two to three days in a lighted dew chamber at 20° C.) to permit spores to germinate and infect the leaf. The plants were then transferred to a greenhouse set at 20° C. for disease to develop. When disease symptoms were fully expressed on the 1st leaves of untreated plants, infection levels were assessed on a scale of 0 to 100 percent disease severity. Percent disease control was calculated using the ratio of disease severity on treated plants relative to untreated plants.

Puccinia triticina = test: Fungicidal activity: wheat brown rust (PUCCRT), wheat seedlings, booth sprayer to run-off or track spray; type: in vivo; details: for pest or weed control at 100 ppm: High-Volume Cereal Activity at 100 ppm; for pest or weed control at 121.5 g/ha: Low-Volume Cereal Activity at 121.5 g/H
Method: All fungicides were evaluated using the aforementioned method for their activity vs. all target diseases. Wheat leaf blotch and brown rust activity were also evaluated using track spray applications, in which case the fungicides were formulated as EC formulations, containing 0.1% Trycol 5941 in the spray solutions. Wheat plants (variety Yuma) were grown from seed in a greenhouse in 50% mineral soil/50% soil-less Metro mix until the first leaf was fully emerged, with 7-10 seedlings per pot. These plants were inoculated with an aqueous spore suspension of Puccinia triticina either prior to or after fungicide treatments. […] The plants were then transferred to a greenhouse set at 24° C. for disease to develop. Fungicide formulation, application and disease assessment followed the procedures as described in the Example A.

[1] = 24 h, 1 Day Protectant, read-out: SEPTTR 1DP
[2] = 72 h, 3 Day Curative, read-out: SEPTTR 3DC
[3] = 3DC (Day Curative), read-out: SEPTTR 3DC
[4] = 24 h, 1 Day Protectant, read-out: PUCCRT 1DP
[5] = 72 h, 3 Day Curative, read-out: PUCCRT 3DC
[6] = 3DC (Day Curative), read-out: PUCCRT 3DC

Compound	pest or weed control at 100 ppm (Zymoseptoria tritici; [1]) [%]	pest or weed control at 121.5 g/ha (Zymoseptoria tritici; [1]) [%]	pest or weed control at 121.5 g/ha (Zymoseptoria tritici; [2]) [%]	pest or weed control at 100 ppm (Zymoseptoria tritici; [3]) [%]	pest or weed control at 100 ppm (Puccinia triticina; [4]) [%]	pest or weed control at 121.5 g/ha (Puccinia triticina; [4]) [%]	pest or weed control at 121.5 g/ha (Puccinia triticina; [5]) [%]	pest or weed control at 100 ppm (Puccinia triticina; [6]) [%]
CCCOC[C@@H](Cc1ccccc1)[C@H](C)OC(=O)[C@H](C)NC(=O)c1nccc(OC)c1OCOC(C)=O [compound 162]	80 to 100	80 to 100	80 to 100	80 to 100	80 to 100	80 to 100	80 to 100	80 to 100
CCCO[C@@H](CC)[C@@H](Cc1ccccc1)[C@H](C)OC(=O)[C@@H](C)NC(=O)c1nccc(OC)c1OCOC(C)=O [compound 163]	0 to 80	–	–	0 to 80	80 to 100	–	–	80 to 100
CCCO[C@@H](CC)[C@@H](Cc1ccccc1)[C@H](C)OC(=O)[C@H](CC)NC(=O)c1nccc(OC)c1OCOC(C)=O [compound 164]	80 to 100	0 to 80	0 to 80	80 to 100	80 to 100	80 to 100	80 to 100	80 to 100
CCCO[C@H](CC)[C@@H](Cc1ccccc1)[C@H](C)OC(=O)[C@@H](C)NC(=O)c1nccc(OC)c1OCOC(C)=O [compound 165]	80 to 100	–	–	0 to 80	0 to 80	–	–	80 to 100
CCCOC[C@@H](Cc1ccccc1)[C@H](C)OC(=O)[C@@H](C)NC(=O)c1nccc(OC)c1OCOC(C)=O [compound 166]	0 to 80	–	–	0 to 80	80 to 100	–	–	80 to 100
CCCOC[C@@H](Cc1ccccc1)[C@H](C)OC(=O)[C@H](CC)NC(=O)c1nccc(OC)c1OCOC(C)=O [compound 167]	80 to 100	80 to 100	0 to 80	80 to 100	80 to 100	80 to 100	80 to 100	80 to 100
CCCO[C@@H](CC)[C@@H](Cc1ccccc1)[C@H](C)OC(=O)[C@H](C)NC(=O)c1nccc(OC)c1OCOC(C)=O [compound 168]	80 to 100	80 to 100	0 to 80	80 to 100	80 to 100	80 to 100	80 to 100	80 to 100
CCCO[C@@H](CC)[C@@H](Cc1ccccc1)[C@H](C)OC(=O)C(C)(C)NC(=O)c1nccc(OC)c1OCOC(C)=O [compound 170]	0 to 80	–	–	0 to 80	0 to 80	–	–	–
CCCOC[C@@H](Cc1ccccc1)[C@H](C)OC(=O)C(C)(C)NC(=O)c1nccc(OC)c1OCOC(C)=O [compound 171]	0 to 80	–	–	0 to 80	–	–	–	0 to 80
CC[C@H](CCCc1ccccc1)[C@@H](CC(C)C)[C@H](C)OC(=O)C(C)NC(=O)c1nccc(OC)c1OC(C)=O (stereo partly shown) [compound 172]	–	0 to 80	0 to 80	–	–	80 to 100	0 to 80	–
CC[C@H](CC1CC1)[C@@H](Cc1ccccc1)[C@H](C)OC(=O)[C@H](C)NC(=O)c1nccc(OC)c1OCOC(C)=O [compound 173]	–	80 to 100	80 to 100	–	–	80 to 100	0 to 80	–
CC[C@H](Cc1ccccc1)[C@@H](Cc1ccc(F)cc1)[C@H](C)OC(=O)[C@H](C)NC(=O)c1nccc(OC)c1OCOC(C)=O [compound 174]	–	80 to 100	0 to 80	–	–	80 to 100	0 to 80	–
CCCOC[C@@H](Cc1ccccc1)[C@H](C)OC(=O)CNC(=O)c1nccc(OC)c1OCOC(C)=O [compound 175]	–	–	0 to 80	–	–	80 to 100	80 to 100	–
CCOC[C@H](Oc1ccc(C)cc1)[C@@H](Cc1ccc(F)cc1)[C@H](C)OC(=O)[C@H](C)NC(=O)c1nccc(OC)c1OCOC(C)=O [compound 177]	–	80 to 100	0 to 80	–	–	80 to 100	0 to 80	–
C=C[C@H](Cc1ccc(C(F)(F)F)cc1)[C@@H](Cc1ccc(F)cc1)[C@H](C)OC(=O)[C@H](COC)NC(=O)c1nccc(OC)c1OC(C)=O [compound 178]	–	0 to 80	0 to 80	–	–	0 to 80	0 to 80	–
C=C[C@H](Cc1ccc(C(F)(F)F)cc1)[C@@H](Cc1ccc(F)cc1)[C@H](C)OC(=O)[C@H](C)NC(=O)c1nccc(OC)c1OC(C)=O [compound 179]	–	0 to 80	80 to 100	–	–	80 to 100	–	–
C=C[C@H](Cc1ccc(C(F)(F)F)cc1)[C@@H](Cc1ccc(F)cc1)[C@H](C)OC(=O)CNC(=O)c1nccc(OC)c1OC(C)=O [compound 180]	–	0 to 80	–	–	–	0 to 80	–	–
CC[C@H](Cc1ccc(C(F)(F)F)cc1)[C@@H](Cc1ccc(F)cc1)[C@H](C)OC(=O)[C@H](COC)NC(=O)c1nccc(OC)c1OC(C)=O [compound 181]	–	0 to 80	0 to 80	–	–	80 to 100	0 to 80	–
CCC[C@@H](Cc1ccccc1)[C@H](C)OC(=O)[C@H](C)NC(=O)c1nccc(OC)c1OCOC(C)=O [compound 184]	–	80 to 100	80 to 100	–	–	80 to 100	80 to 100	–
COC(=O)[C@@H](Cc1ccccc1)[C@H](C)OC(=O)[C@H](C)NC(=O)c1nccc(OC)c1OCOC(C)=O [compound 185]	–	0 to 80	–	–	–	0 to 80	0 to 80	–
CC[C@H](Cc1ccccc1)[C@@H](Cc1ccc(OC(F)(F)F)cc1)[C@H](C)OC(=O)[C@H](C)NC(=O)c1nccc(OC)c1OCOC(C)=O [compound 187]	–	0 to 80	0 to 80	–	–	0 to 80	0 to 80	–
CCCC[C@@H]([C@H](C)OC(=O)[C@H](C)NC(=O)c1nccc(OC)c1OCOC(C)=O)[C@H](CC)Oc1ccccc1 [compound 188]	–	80 to 100	80 to 100	–	–	80 to 100	80 to 100	–
CCCC[C@@H]([C@H](C)OC(=O)[C@H](C)NC(=O)c1nccc(OC)c1OCOC(C)=O)[C@@H](CC)Oc1ccccc1 [compound 189]	–	80 to 100	0 to 80	–	–	80 to 100	80 to 100	–
CCCC[C@@H]([C@H](C)OC(=O)[C@H](C)NC(=O)c1nccc(OC)c1OC(=O)O)[C@@H](CC)Oc1ccccc1 [compound 190]	–	80 to 100	80 to 100	–	–	80 to 100	80 to 100	–
CC[C@H](Oc1ccccc1)[C@@H](Cc1ccccc1)[C@H](C)OC(=O)[C@H](C)NC(=O)c1nccc(OC)c1OCOC(C)=O [compound 191]	–	80 to 100	80 to 100	–	–	80 to 100	80 to 100	–
CC[C@@H](Oc1ccccc1)[C@@H](Cc1ccccc1)[C@H](C)OC(=O)[C@H](C)NC(=O)c1nccc(OC)c1OCOC(C)=O [compound 192]	–	80 to 100	80 to 100	–	–	80 to 100	80 to 100	–
CC[C@H](Oc1ccccc1)[C@@H](Cc1ccccc1)[C@H](C)OC(=O)[C@H](C)NC(=O)c1nccc(OC)c1OC(C)=O [compound 193]	–	80 to 100	0 to 80	–	–	80 to 100	80 to 100	–
CC[C@@H](Oc1ccccc1)[C@@H](Cc1ccccc1)[C@H](C)OC(=O)[C@H](C)NC(=O)c1nccc(OC)c1OC(C)=O [compound 194]	–	80 to 100	80 to 100	–	–	80 to 100	0 to 80	–
